The values that follow come from patent publication US6949648B2, “Condensed pyrazole derivatives, process for producing the same and use thereof” (Takeda Pharmaceutical Company Limited, priority 2000, dated 2005).

Where a name gives a salt, the structure may show the parent alone.

In series [1] the test system is IL-4. Kind of series: Effect on cytokine production of mice sensitized by controlled-release ovalbumin: IL-4. Format: in vivo, BALB/c mouse. Particulars: Mus musculus, po; 30 mg/kg b.w. orally, 5 days a week during 9-day period; splenic cells incubated with OVA 3 days, ELISA; read-out: Suppression Rate (%) IL-4. As for the experimental part: (§1) Effect on Cytokine Production of Mice Sensitized by Controlled-Release Ovalbumin
(§2) An osmotic pump (Alza Co., USA) containing a solution (100 μL) containing 1.0 mg of ovalbumin (OVA; albumin chicken egg grade III, Sigma Chemical) was implanted in the back of a male BALB/c mouse (Charles River) of 8 weeks old under ether anesthesia, and the mouse is sensitized by the controlled-release ovalbumin. After 11 days from implantation of the pump, a sample of spleen was removed, and a splenic cell suspension was prepared by the use of the RPMI-1640 medium (Bio Whittaker Inc., USA) containing inactivated fetal bovine serum (10% V/V; Bio Whittaker Inc., USA), 2-mercaptoethanol (50 μM), and gentamicin (20 μg/ml). A sample compound (30 mg/kg b.w.) was suspended in 0.4 ml of methylcellulose (MC), and the suspension was orally administered, 5 days a week during the 9-day period from the initiation day of sensitization to the day before the day of blood sample collection (1 Group, n=10). The splenic cell suspension was adjusted to a concentration of 5.0×10^6 cells/ml, and the resulting suspension (100 μl) was pipetted onto a 96 well U-bottomed plate, each of the wells containing a solution (100 μl/well) of 400 μg/ml OVA, and the plate was incubated at 37° C. in a 5% carbon dioxide gas incubator for 3 days. The cultured media were centrifuged at 200×g for 5 minutes, and the supernatants were collected and the production of IL-4, IL-5 and IFN-γ in each of the supernatants was determined by the ELISA method [Mouse IL-4 Bulk Kit (PerSeptive Biosystems), Mouse IL-5 Bulk Kit (PerSeptive Biosystems), and Mouse IFN-γ Bulk Kit (PerSeptive Biosystems)].

The test system of series [2] is IL-5. The experiment in a line: Effect on cytokine production of mice sensitized by controlled-release ovalbumin: IL-5. Format: in vivo, BALB/c mouse. The following applies: Mus musculus, po; 30 mg/kg b.w. orally, 5 days a week during 9-day period; splenic cells incubated with OVA 3 days, ELISA; read-out: Suppression Rate (%) IL-5. How it is done:
as §1, §2

Series [3] relates to IFN-γ. Kind of series: Effect on cytokine production of mice sensitized by controlled-release ovalbumin: IFN-γ. The format is in vivo, BALB/c mouse. The following applies: Mus musculus, po; 30 mg/kg b.w. orally, 5 days a week during 9-day period; splenic cells incubated with OVA 3 days, ELISA; read-out: Suppression Rate (%) IFN-γ. How it is done: as §1, §2
In series [4] the test system is OVA-specific IgE. The experiment in a line: Effect on antibody production of ovalbumin-sensitized mice: IgE. The format is in vivo, BALB/c mouse. Particulars: Mus musculus, po, 264 h; 30 mg/kg b.w. orally, 5 days a week during 9-day period; serum 11 days after first sensitization, ELISA; read-out: Suppression Rate (%) IgE. As for the experimental part: (§3) Effect on Antibody Production of Mice Sensitized by Controlled-Release Ovalbumin
(§4) A male BALB/c mouse (Charles River) of 7 weeks old was sensitized by intraabdominal administration, twice at an interval of a week, of a mixture of 10 μg/mouse of ovalbumin (OVA; albumin chicken egg grade III; Sigma Chemical) and 1 mg of aluminum hydroxide hydrate gel suspension (Alum; LSL Co. LTD.). After 11 days from the first sensitization, blood was collected from beneath eye under ether anesthesia, and the amount of OVA-specific IgE, IgG1 (Th2 type) and IgG2a (Th1 type) antibodies in the serum were determined by the ELISA method. A sample compound (30 mg/kg b.w.) was suspended in 0.4 ml of methylcellulose (MC), and the suspension was orally administered, 5 days a week during the 9-day period from the initiation day of sensitization to the day before the day of blood sample collection (1 Group, n=8 to 10).

In series [5] the test system is OVA-specific IgG2a (Th1 type). Kind of series: Effect on antibody production of ovalbumin-sensitized mice: IgG2a. The format is in vivo, BALB/c mouse. Particulars: Mus musculus, po, 264 h; 30 mg/kg b.w. orally, 5 days a week during 9-day period; serum 11 days after first sensitization, ELISA; read-out: Suppression Rate (%) IgG2a. How it is done: as §3, §4

`COc1cc2[nH]c3c(c(C)nn3-c3ccccn3)c(=O)c2cc1OC` [Example 1-49, 6,7-Dimethoxy-3-methyl-1-(2-pyridinyl)-1,9-dihydro-4H-pyrazolo[3,4-b]quinolin-4-one]: the inhibition in vivo at 30 mg/kg is 13.9% in series [1], 11.8% in series [2] and -9% in series [3].

For the molecule `Cc1cccc2c(N)c3c(C)nn(-c4ccccn4)c3nc12` [Example 1-46, 3,8-Dimethyl-1-(2-pyridinyl)-1H-pyrazolo[3,4-b]quinolin-4-ylamine hydrochloride], the results for the inhibition in vivo at 30 mg/kg in series [1], in series [2] and in series [3] were 80.4%, 5.2% and -132%, respectively.

Regarding `CCOc1cccc(-n2nc(C)c3c(=O)c4cccc(C)c4[nH]c32)n1` [Example 1-61, 3,8-Dimethyl-1-(6-ethoxy-2-pyridinyl)-1,9-dihydro-4H-pyrazolo[3,4-b]quinolin-4-one], the inhibition in vivo at 30 mg/kg in series [1] was 16%; in series [2], 26.1%; in series [3], -8.7%.

On to `Cc1cccnc1-n1nc(C)c2c(Cl)c3ccccc3nc21` [Example 1-56, 4-Chloro-3-methyl-1-(3-methyl-2-pyridinyl)-1H-pyrazolo[3,4-b]quinoline], for which the values for the inhibition in vivo at 30 mg/kg in series [1], in series [2] and in series [3] were 23.7%, 12.2% and 12.2%, respectively.

Regarding `COc1cccc2c(N)c3c(C)nn(-c4ccccn4)c3nc12` [Example 1-48, 8-Methoxy-3-methyl-1-(2-pyridinyl)-1H-pyrazolo[3,4-b]quinolin-4-ylamine hydrochloride], the inhibition in vivo at 30 mg/kg in series [1] is 31.6%; in series [2], 16.2%; in series [3], -7.6%.

Consider `Cc1nn(-c2ccccn2)c2[nH]c3ccc(Cl)cc3c(=O)c12` [Example 1-51, 6-Chloro-3-methyl-1-(2-pyridinyl)-1,9-dihydro-4H-pyrazolo[3,4-b]quinolin-4-one], for which the inhibition in vivo at 30 mg/kg in series [1] is 31.9%; in series [2], 53.7%; in series [3] it was -11.2%.

As to `Cc1nn(Cc2ccccn2)c2[nH]c3ccccc3c(=O)c12` [Example 1-69, 3-Methyl-1-(2-pyridinylmethyl)-1,9-dihydro-4H-pyrazolo[3,4-b]quinolin-4-one], the inhibition in vivo at 30 mg/kg came to 19.4% in series [1], 50% in series [2] and 8.3% in series [3].

Take `Cc1cccnc1-n1nc(C)c2c(N)c3cccc(C)c3nc21` [Example 1-62, 3,8-Dimethyl-1-(3-methyl-2-pyridinyl)-1H-pyrazolo[3,4-b]quinolin-4-ylamine]: the inhibition in vivo at 30 mg/kg in series [1] is 19.4%; in series [2], 4.8%; in series [3] it was -13.8%.

Consider `Cc1nn(-c2cccnc2)c2[nH]c3ccccc3c(=O)c12` [Example 1-64, 3-Methyl-1-(3-pyridinyl)-1,9-dihydro-4H-pyrazolo[3,4-b]quinolin-4-one], for which the inhibition in vivo at 30 mg/kg is 49.1% in series [1], 39.9% in series [2] and -6.8% in series [3].

`Cc1cccc2c(N)c3c(C)nn(-c4ccc5ccccc5n4)c3nc12` [Example 1-66, 3,8-Dimethyl-1-(2-quinolinyl)-1H-pyrazolo[3,4-b]quinolin-4-ylamine]: the results for the inhibition in vivo at 30 mg/kg in series [1], in series [2] and in series [3] were 27.1%, 34.3% and 50%, respectively.

Regarding `Cc1nn(-c2ncccn2)c2nc3ccccc3c(N)c12` [Example 1-65, 3-Methyl-1-(2-pyrimidinyl)-1H-pyrazolo[3,4-b]quinolin-4-ylamine hydrochloride], the inhibition in vivo at 30 mg/kg in series [1] was 8.1%; in series [2] it was 16.5%; in series [3], -15.7%.

With `Cc1nn(-c2ccccn2)c2nc(-c3ccccc3)cc(O)c12` [Example 1-22, 3-Methyl-6-phenyl-1-(2-pyridinyl)-1H-pyrazolo[3,4-b]pyridin-4-ol], the melting point fell in the range of 198 to 199 °C. In addition, the inhibition in vivo at 30 mg/kg in series [4] was found to be 14%. In series [5], the inhibition in vivo at 30 mg/kg was -2.1%.
